Measurements reported in PubChem BioAssay (NCI).
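Results reflect a 48-hour exposure of cells in 96-well plates to compound at five concentrations. GI50: concentration for 50% inhibition of growth. The concentration for full growth arrest is given as TGI.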

Key:
Experiment in all cases: inhibition of tumour cell growth, NCI panel, 48 h
[1] = system: CCRF-CEM leukemia
[2] = system: M14 melanoma
[3] = system: CAKI-1 renal
[4] = system: HL-60(TB) leukemia
[5] = system: EKVX NSCLC
[6] = system: HCT-15 colon
[7] = system: OVCAR-4 ovarian
[8] = system: SW-620 colon
[9] = system: KM12 colon
[10] = system: HOP-62 NSCLC

Row | Structure (SMILES) | TGI [1] | TGI [2] | TGI [3] | TGI [4] | TGI [5] | TGI [6] | TGI [7] | TGI [8] | TGI [9] | TGI [10] | GI50 [1] | GI50 [2] | GI50 [3] | GI50 [4] | GI50 [5] | GI50 [6] | GI50 [7] | GI50 [8] | GI50 [9] | GI50 [10]
1 | O=C(O)CC1(C(=O)O)CCCCC1 | > 100 µM | > 100 µM | > 100 µM | > 100 µM | > 100 µM | > 100 µM | > 100 µM | > 100 µM | > 100 µM | > 100 µM | – | – | – | – | – | – | – | – | – | –
2 | C[C@]12CCC(=O)C=C1CC[C@@H]1[C@@H]2CC[C@]2(C)C(=O)/C(=C/c3cccc(OCCN4CCOCC4)c3)C[C@@H]12 | 28.6 µM | 21.5 µM | 48.3 µM | 5.82 µM | 42.3 µM | 42.1 µM | > 100 µM | 27.7 µM | > 100 µM | 29 µM | 4.49 µM | 8.9 µM | 11.9 µM | 2.13 µM | 5.57 µM | 5.29 µM | 3.01 µM | 8.45 µM | 9.02 µM | 12.6 µM
3 | CC(C)=CCC/C(C)=C/CC/C(=C/COP(=O)(OCc1ccc([N+](=O)[O-])o1)N(C)CCCCCl)C(C)(C)C (stereo not given) | 27.4 µM | 11.8 µM | 22 µM | > 100 µM | 22.4 µM | 6.79 µM | 33.1 µM | 8.57 µM | 14.9 µM | 3.86 µM | 0.0571 µM | 2.69 µM | 5.78 µM | 4.18 µM | 6.48 µM | 1.66 µM | 11.8 µM | 3.07 µM | 3.63 µM | 1.83 µM
4 | Cc1ccc2sc3c(NCCCNCCO)nc4ccccc4c3c(=O)c2c1 | 2.97 µM | 3.06 µM | 2.82 µM | 3.58 µM | 3.08 µM | 2.92 µM | 3.12 µM | 3.13 µM | 3.21 µM | 2.87 µM | 1.35 µM | 1.61 µM | 1.43 µM | 1.86 µM | 1.61 µM | 1.48 µM | 1.64 µM | 1.62 µM | 1.73 µM | 1.27 µM
5 | Cc1ccc(C2=NO[C@@H]3C(=O)N(c4ccc(Cc5ccc(N6C(=O)[C@H]7C(c8ccc(C)cc8)=NO[C@H]7C6=O)cc5)cc4)C(=O)[C@H]23)cc1 | > 100 µM | > 100 µM | > 100 µM | > 100 µM | > 100 µM | > 100 µM | > 100 µM | > 100 µM | > 100 µM | > 100 µM | – | – | – | – | – | – | – | – | – | –
6 | CCCCCCCCCCCC(=O)OCC1OC(n2cc(F)c(=O)[nH]c2=O)C(N)C(O)C1O (stereo not given) | > 100 µM | > 100 µM | > 100 µM | > 100 µM | > 100 µM | > 100 µM | > 100 µM | > 100 µM | > 100 µM | > 100 µM | – | – | – | – | – | – | – | – | – | –
7 | O=C(/C=C\Sc1nccc(C(F)(F)F)n1)c1ccc(Br)cc1 | 11.9 µM | 35.5 µM | 35.1 µM | 20.8 µM | 67.4 µM | 70.6 µM | 45.8 µM | > 100 µM | > 100 µM | > 100 µM | 3.68 µM | 17.9 µM | 18 µM | 0.84 µM | 23.3 µM | 20.7 µM | 20.4 µM | 30.5 µM | 38.1 µM | > 100 µM
8 | Nc1nc(N)c(-c2ccc(Cl)cc2)c(CCC(=O)Nc2cccc(C(F)(F)F)c2)n1 | > 100 µM | > 100 µM | > 100 µM | > 100 µM | > 100 µM | > 100 µM | > 100 µM | > 100 µM | > 100 µM | > 100 µM | – | – | – | – | – | – | – | – | – | –
9 | CN(CCC(=O)O)S(=O)(=O)c1ccccc1 | > 100 µM | > 100 µM | > 100 µM | > 100 µM | > 100 µM | > 100 µM | > 100 µM | > 100 µM | > 100 µM | > 100 µM | – | – | – | – | – | – | – | – | – | –
10 | CC(=O)OCC1OC(S[As](C)C)C(OC(C)=O)C1OC(C)=O (stereo not given) | 1.34 µM | 0.726 µM | 0.453 µM | 0.648 µM | 9.05 µM | 1.08 µM | 8.09 µM | 1.47 µM | 13.6 µM | 15.2 µM | 0.19 µM | 0.193 µM | 0.0791 µM | 0.0813 µM | 1.2 µM | 0.256 µM | 1.15 µM | 0.302 µM | 2 µM | 3.35 µM
11 | CN=S(=O)(C[C@]1(O)CC2OC1C1OC(C)(C)OC21)c1ccccc1 (stereo not given in full) | > 100 µM | > 100 µM | > 100 µM | > 100 µM | > 100 µM | > 100 µM | > 100 µM | > 100 µM | > 100 µM | > 100 µM | – | – | – | – | – | – | – | – | – | –
12 | Cc1c(Cl)ccc2c1NC(=O)C2(O)C1Cc2ccccc2C1=O (stereo not given) | > 100 µM | > 100 µM | > 100 µM | 65.4 µM | > 100 µM | > 100 µM | > 100 µM | > 100 µM | > 100 µM | > 100 µM | – | – | – | – | – | – | – | – | – | –
13 | COc1cccc2c1c1nc3cc(C)c(C)cc3nc1n2CCN(C)C | 7.3 µM | 3.07 µM | 6.34 µM | 6.57 µM | 7.33 µM | 11.2 µM | 8.6 µM | 11.3 µM | 9.43 µM | 11 µM | 1.81 µM | 1.24 µM | 0.946 µM | 2.09 µM | 2.29 µM | 1.64 µM | 2.06 µM | 0.805 µM | 1.83 µM | 1.72 µM
14 | Cc1cc(C)nc(SC2=C(Nc3cccc(Cl)c3)C(=O)N(Cc3ccccc3)C2=O)n1 | > 170 µM | > 170 µM | > 170 µM | > 170 µM | > 170 µM | > 170 µM | > 170 µM | > 170 µM | > 170 µM | > 170 µM | > 170 µM | 39.6 µM | > 170 µM | > 170 µM | > 170 µM | > 170 µM | > 170 µM | > 170 µM | > 170 µM | 42.3 µM
15 | O=C(CC1(O)C(=O)Nc2c(Cl)cc(Cl)cc21)c1ccc2ccccc2c1 (stereo not given) | 39 µM | 16.6 µM | 19.8 µM | 14.6 µM | 23.4 µM | 14.2 µM | 26.4 µM | 14.7 µM | 18.8 µM | 20.8 µM | – | – | – | – | – | – | – | – | – | –
